Experimental data published in patent US9067881B2, “4-tolyl-ethynyl-octahydro-indole-1-ester derivatives” (NOVARTIS AG, priority 2011, dated 2015).
≈ marks a conversion by molar mass, not a printed value.

Experiments:
[1] = In-vitro clearance in human liver microsomes (metabolic stability, compound depletion)
[2] = In-vitro clearance in rat liver microsomes (metabolic stability, compound depletion)
[3] = Solubility in Cl free phosphate buffer pH 6.8; type: physicochemical; conditions: aqueous buffer; Cl free phosphate buffer (0.067 M) pH 6.8
human mGluR5 = target: T1, human mGluR5 (Homo sapiens, UniProt P41594); assay: In-vitro activity of mGluR5 antagonists (inhibition of agonist induced elevation of intracellular Ca2+ or inositol phosphate turnover at recombinant human mGluR5); type: cell-based; conditions: recombinant human mGluR5, antagonism
T1 construct: expressed in transfected cells

[4] = microsomes
[5] = microsomes; remark: listed apart in the source

T1 sequence (P41594 21-1180 isoform P41594-2 limits assumed): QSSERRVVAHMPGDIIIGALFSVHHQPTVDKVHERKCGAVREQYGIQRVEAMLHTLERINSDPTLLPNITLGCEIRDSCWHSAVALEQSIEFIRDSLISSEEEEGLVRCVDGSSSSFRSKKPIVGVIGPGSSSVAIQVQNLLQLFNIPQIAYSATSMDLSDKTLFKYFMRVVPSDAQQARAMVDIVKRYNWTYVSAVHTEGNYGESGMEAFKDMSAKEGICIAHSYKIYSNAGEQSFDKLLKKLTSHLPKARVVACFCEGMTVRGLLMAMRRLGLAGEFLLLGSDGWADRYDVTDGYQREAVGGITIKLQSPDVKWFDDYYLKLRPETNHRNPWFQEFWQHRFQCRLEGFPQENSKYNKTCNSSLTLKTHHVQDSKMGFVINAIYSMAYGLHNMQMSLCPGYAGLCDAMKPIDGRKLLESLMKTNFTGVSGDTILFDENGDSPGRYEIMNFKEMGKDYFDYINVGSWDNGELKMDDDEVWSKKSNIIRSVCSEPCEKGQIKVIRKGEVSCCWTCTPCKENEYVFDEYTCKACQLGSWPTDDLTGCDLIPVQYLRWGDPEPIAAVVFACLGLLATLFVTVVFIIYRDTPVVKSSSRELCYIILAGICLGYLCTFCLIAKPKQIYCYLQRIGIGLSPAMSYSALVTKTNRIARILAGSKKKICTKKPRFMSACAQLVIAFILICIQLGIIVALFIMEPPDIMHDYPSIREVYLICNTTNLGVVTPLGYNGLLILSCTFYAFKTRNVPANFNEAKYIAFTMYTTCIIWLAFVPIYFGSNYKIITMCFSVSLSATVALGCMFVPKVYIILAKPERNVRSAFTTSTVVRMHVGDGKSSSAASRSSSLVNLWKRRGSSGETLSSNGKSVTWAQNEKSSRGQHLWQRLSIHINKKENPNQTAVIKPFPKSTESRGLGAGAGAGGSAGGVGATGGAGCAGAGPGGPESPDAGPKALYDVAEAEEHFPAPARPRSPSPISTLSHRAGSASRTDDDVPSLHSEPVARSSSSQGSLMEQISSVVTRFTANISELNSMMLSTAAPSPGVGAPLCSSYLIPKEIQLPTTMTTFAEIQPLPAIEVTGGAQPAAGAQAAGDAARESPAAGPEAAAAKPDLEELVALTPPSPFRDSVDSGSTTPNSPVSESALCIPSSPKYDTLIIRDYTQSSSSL

Row | Compound | microsomal CLint at 1 μM [1] [µL/min/mg] | microsomal CLint at 1 μM [2] [µL/min/mg] | solubility [3] [µg/mL] | IC50 (human mGluR5) [nM] | CL (human) [4] [µL/min/mg] | CL (rat) [5] [µL/min/mg]
1 | COC(=O)N1CC[C@@H]2[C@H]1CCC[C@]2(C#Cc1cccc(C)c1)OC(=O)CN(C)C [Example 1, (3aR,4S,7aR)-4-(2-Dimethylamino-acetoxy)-4-m-tolylethynyl-octahydro-indole-1-carboxylic acid methyl ester] | 14 | 195 |  |  |  | 
2 | COC(=O)N1CC[C@@H]2[C@H]1CCC[C@@]2(O)C#Cc1cccc(C)c1 [Example 1.0, 4-hydroxy-4-m-tolylethynyl-octahydro-indole-1-carboxylic acid methyl ester, reference compound] | 113 | 277 | 51 (≈ 163 µM) |  |  | 
3 | CCOC(=O)N1CC[C@@H]2[C@H]1CCC[C@@]2(O)C#Cc1cccc(C)c1 [Example 2.0] |  |  |  | 42 |  | 
4 | COC(=O)N1CC[C@@H]2[C@H]1CCC[C@]2(C#Cc1cccc(C)c1)OC(=O)CCCN(C)C [Example 3, (3aR,4S,7aR)-4-(4-Dimethylamino-butyryloxy)-4-m-tolylethynyl-octahydro-indole-1-carboxylic acid methyl ester] | 283 | 730 |  |  |  | 
5 | CNCC(=O)O[C@@]1(C#Cc2cccc(C)c2)CCC[C@@H]2[C@H]1CCN2C(=O)OC [Example 7, (3aR,4S,7aR)-4-(2-Methylamino-acetoxy)-4-m-tolylethynyl-octahydro-indole-1-carboxylic acid methyl ester] | 433 | 346 |  |  |  | 
6 | COC(=O)N1CC[C@@H]2[C@H]1CCC[C@]2(C#Cc1cccc(C)c1)OC(=O)CN [Example 8, (3aR,4S,7aR)-4-(2-Amino-acetoxy)-4-m-tolylethynyl-octahydro-indole-1-carboxylic acid methyl ester] | 187 | 87 | 125 (≈ 337 µM) |  |  | 
7 | COC(=O)N1CC[C@@H]2[C@H]1CCC[C@]2(C#Cc1cccc(C)c1)OC(=O)[C@H](C)N [Example 9, (3aR,4S,7aR)-4-((S)-2-Amino-propionyloxy)-4-m-tolylethynyl-octahydro-indole-1-carboxylic acid methyl ester] | 315 | 355 |  |  |  | 
8 | CCC(=O)O[C@@]1(C#Cc2cccc(C)c2)CCC[C@@H]2[C@H]1CCN2C(=O)OC [Example 14, (3aR,4S,7aR)-4-Propionyloxy-4-m-tolylethynyl-octahydro-indole-1-carboxylic acid methyl ester] |  | 3.4 | 9 (≈ 24.4 µM) |  |  | 
9 | CCCCCCCCCCCCCC(=O)O[C@@]1(C#Cc2cccc(C)c2)CCC[C@@H]2[C@H]1CCN2C(=O)OC [Example 16, (3aR,4S,7aR)-4-Tetradecanoyloxy-4-m-tolylethynyl-octahydro-indole-1-carboxylic acid methyl ester] | 33 | 26 | < 2 |  |  | 
10 | CCCCCCCCCCCC(=O)O[C@@]1(C#Cc2cccc(C)c2)CCC[C@@H]2[C@H]1CCN2C(=O)OC [Example 19, (3aR,4S,7aR)-4-Dodecanoyloxy-4-m-tolylethynyl-octahydro-indole-1-carboxylic acid methyl ester] |  | 32 | < 2 |  |  | 
11 | CCCCCCCCCC(=O)O[C@@]1(C#Cc2cccc(C)c2)CCC[C@@H]2[C@H]1CCN2C(=O)OC [Example 20, (3aR,4S,7aR)-4-Decanoyloxy-4-m-tolylethynyl-octahydro-indole-1-carboxylic acid methyl ester] |  | 5.4 | < 2 |  |  | 
12 | CCCCCCC(=O)O[C@@]1(C#Cc2cccc(C)c2)CCC[C@@H]2[C@H]1CCN2C(=O)OC [Example 23, (3aR,4S,7aR)-4-Heptanoyloxy-4-m-tolylethynyl-octahydro-indole-1-carboxylic acid methyl ester] |  | 3.4 | < 2 |  |  | 
13 | CCCCCCCCC(=O)O[C@@]1(C#Cc2cccc(C)c2)CCC[C@@H]2[C@H]1CCN2C(=O)OC [Example 24, (3aR,4S,7aR)-4-Nonanoyloxy-4-m-tolylethynyl-octahydro-indole-1-carboxylic acid methyl ester] |  | 32 | < 2 |  |  | 
14 | CCCCCCCCCCCCC(=O)O[C@@]1(C#Cc2cccc(C)c2)CCC[C@@H]2[C@H]1CCN2C(=O)OC [Example 25, (3aR,4S,7aR)-4-m-Tolylethynyl-4-tridecanoyloxy-octahydro-indole-1-carboxylic acid methyl ester] |  | 32 | < 2 |  |  | 
15 | COC(=O)N1CC[C@@H]2[C@H]1CCC[C@]2(C#Cc1cccc(C)c1)OC(=O)CN1CCOCC1 [Example 26, (3aR,4S,7aR)-4-(2-Morpholin-4-yl-acetoxy)-4-m-tolylethynyl-octahydro-indole-1-carboxylic acid methyl ester] | 770 | 533 | 138 (≈ 313 µM) |  |  | 
16 | COC(=O)N1CC[C@@H]2[C@H]1CCC[C@]2(C#Cc1cccc(C)c1)OC(=O)CCN1CCOCC1 [Example 27, (3aR,4S,7aR)-4-(3-Morpholin-4-yl-propionyloxy)-4-m-tolylethynyl-octahydro-indole-1-carboxylic acid methyl ester] | 94 | 533 | 108 (≈ 238 µM) |  |  | 
17 | COC(=O)N1CC[C@@H]2[C@H]1CCC[C@]2(C#Cc1cccc(C)c1)OC(=O)CCN1CCCC1 [Example 29, (3aR,4S,7aR)-4-(3-Pyrrolidin-1-yl-propionyloxy)-4-m-tolylethynyl-octahydro-indole-1-carboxylic acid methyl ester] | 660 | 730 | 439 (≈ 1000 µM) |  |  | 
18 | COC(=O)N1CC[C@@H]2[C@H]1CCC[C@]2(C#Cc1cccc(C)c1)OC(=O)CCN [Example 40, (3aR,4S,7aR)-methyl 4-(3-aminopropanoyloxy)-4-(m-tolylethynyl)octahydro-1H-indole-1-carboxylate] | 36 | 302 |  |  |  | 
19 | COC(=O)N1CC[C@@H]2[C@H]1CCC[C@]2(C#Cc1cccc(C)c1)OC(=O)[C@@H](N)c1ccccc1 [Example 41, (3aR,4S,7aR)-methyl 4-((S)-2-amino-2-phenylacetoxy)-4-(m-tolylethynyl)octahydro-1H-indole-1-carboxylate] | 693 | 579 | 3 (≈ 6.72 µM) |  |  | 
20 | COC(=O)N1CC[C@@H]2[C@H]1CCC[C@]2(C#Cc1cccc(C)c1)OC(=O)c1ccncc1 [Example 45, (3aR,4S,7aR)-methyl 4-(isonicotinoyloxy)-4-(m-tolylethynyl)octahydro-1H-indole-1-carboxylate] |  | 385 | < 2 |  |  | 
21 | COC(=O)N1CC[C@@H]2[C@H]1CCC[C@]2(C#Cc1cccc(C)c1)OC(=O)c1cccc(C)c1 [Example 46, (3aR,4S,7aR)-methyl 4-(3-methylbenzoyloxy)-4-(m-tolylethynyl)octahydro-1H-indole-1-carboxylate] |  | 4.4 |  |  |  | 
22 | COC(=O)N1CC[C@@H]2[C@H]1CCC[C@]2(C#Cc1cccc(C)c1)OC(=O)c1ccc(Br)cc1 [Example 48, (3aR,4S,7aR)-methyl 4-(4-bromobenzoyloxy)-4-(m-tolylethynyl)octahydro-1H-indole-1-carboxylate] |  | 26 |  |  |  | 
23 | COC(=O)N1CC[C@@H]2[C@H]1CCC[C@]2(C#Cc1cccc(C)c1)OC(=O)c1cccnc1 [Example 51, (3aR,4S,7aR)-methyl 4-(nicotinoyloxy)-4-(m-tolylethynyl)octahydro-1H-indole-1-carboxylate] |  | 478 | < 2 |  |  | 
24 | COC(=O)N1CC[C@@H]2[C@H]1CCC[C@]2(C#Cc1cccc(C)c1)OC(=O)c1c(C)cc(C)cc1C [Example 53, (3aR,4S,7aR)-methyl 4-(m-tolylethynyl)-4-(2,4,6-trimethylbenzoyloxy)octahydro-1H-indole-1-carboxylate] |  | 3.4 |  |  |  | 
25 | COC(=O)N1CC[C@@H]2[C@H]1CCC[C@]2(C#Cc1cccc(C)c1)OC(=O)c1ccccn1 [Example 54, (3aR,4S,7aR)-4-(Pyridine-2-carbonyloxy)-4-m-tolylethynyl-octahydro-indole-1-carboxylic acid methyl ester] |  | 167 | 2 (≈ 4.78 µM) |  |  | 
26 | CCCN(CCC)C(=O)CCC(=O)O[C@@]1(C#Cc2cccc(C)c2)CCC[C@@H]2[C@H]1CCN2C(=O)OC [Example 63, (3aR,4S,7aR)-methyl 4-(4-(dipropylamino)-4-oxobutanoyloxy)-4-(m-tolylethynyl)octahydro-1H-indole-1-carboxylate] |  | 26 | 43 (≈ 86.6 µM) |  |  | 
27 | (3aR,4S,7aR)-4-((S,R)-2-Amino-3-methyl-butyryloxy)-4-m-tolylethynyl-octahydro-indole-1-carboxylic acid methyl ester [Example 4] |  |  |  |  | 630 | 478
